Columns and labels:
[1] = target: T1, GR (Homo sapiens, UniProt P04150); assay: Transrepression assay, PMA-induced MMP1 promoter luciferase in HeLa cells; assay type: cell-based; set-up: endogenous in cells; host or cells: HeLa (ATCC) stably expressing MMP1- or MMTV-promoter luciferase; conditions: for EC50: 18 h, geometric mean
T1 sequence (P04150 1-777): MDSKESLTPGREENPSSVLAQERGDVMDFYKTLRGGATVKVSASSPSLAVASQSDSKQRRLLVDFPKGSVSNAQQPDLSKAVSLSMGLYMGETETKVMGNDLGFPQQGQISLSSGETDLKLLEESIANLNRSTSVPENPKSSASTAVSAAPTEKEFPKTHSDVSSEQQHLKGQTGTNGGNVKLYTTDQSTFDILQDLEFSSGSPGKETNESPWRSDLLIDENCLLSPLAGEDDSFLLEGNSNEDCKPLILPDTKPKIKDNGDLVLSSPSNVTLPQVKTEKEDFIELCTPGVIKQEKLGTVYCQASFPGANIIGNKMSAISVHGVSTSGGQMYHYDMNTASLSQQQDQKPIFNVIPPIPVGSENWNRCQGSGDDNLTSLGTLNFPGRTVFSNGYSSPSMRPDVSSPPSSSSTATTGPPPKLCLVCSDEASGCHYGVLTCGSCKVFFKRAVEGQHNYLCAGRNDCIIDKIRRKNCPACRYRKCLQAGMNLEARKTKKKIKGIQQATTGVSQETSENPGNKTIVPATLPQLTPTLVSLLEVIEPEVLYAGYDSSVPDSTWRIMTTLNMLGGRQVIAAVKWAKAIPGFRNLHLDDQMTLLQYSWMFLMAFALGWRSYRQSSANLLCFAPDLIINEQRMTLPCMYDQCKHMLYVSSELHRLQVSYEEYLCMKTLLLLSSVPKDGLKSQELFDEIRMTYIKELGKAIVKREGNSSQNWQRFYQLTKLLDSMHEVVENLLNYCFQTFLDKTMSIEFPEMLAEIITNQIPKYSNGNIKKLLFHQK
Protocol: Assays were adopted from a method reported by Schäcke et al.[39] and HeLa cells were obtained from the American Type Culture Collection (ATCC). Transrepression assay: A HeLa cell line stably expressing luciferase under the control of the human Matrix Metallopeptidase 1 (MMP1) promoter was generated. Upon binding to the GR, […], preventing it from binding the MMP1 promoter, resulting in inhibition of luciferase transcription and activity. Briefly, cells were incubated in culture medium containing charcoal-filtered fetal bovine serum with 5 nM PMA (phorbol 12-myristate 13-acetate) for 18 h with or without test compounds. Then, luciferase activity was detected luminometrically after addition of specific substrate to the cells.
(§1) IC50 of test compounds was determined by 10-point titrations in duplicates. IC50 values and other parameters were calculated by sigmoidal curve fitting in Assay Explorer.

[2] = test system: TPA-induced skin inflammation; assay: TPA-induced skin inflammation in mice, efficacy; assay type: in vivo; conditions: TPA mouse model; for Ear biopsy weight ID50 (API concentration in formulation) / Ear biopsy weight Imax: topical, CV (%) in brackets
Protocol: Female Balb/c mice of 7 to 8 weeks old were obtained from Charles River, Germany and acclimatized for at least 1 week. Skin inflammation was induced by repeated topical application of TPA (20 μL of 0.01% TPA in acetone; 10 μL to each side of ear) on days 1, 3, 5, 8 and 10.
Treatments were performed by topical application of either vehicle (90% acetone, 10% transcutol), Treatments were applied twice daily on days 8, 9, 10, and once on day 11 (20–10 μL to each side of ear) with at least 5 h between the first and second treatment. TPA challenge on days 8 and 10 was performed at least 1 h after the first treatment. On day 11, animals were sacrificed 2 h after the last dosing. Blood was sampled by cardiac puncture from animals anaesthetized with isoflurane. Thereafter, ear biopsies were taken with a biopsy punch (8 mm diameter), weighed and stored at – 80 °C. Plasma osteocalcin levels were analyzed by EIA (rat-MID, IDS, UK). Effective inhibitory doses (ID50) were determined from a sigmoid I(max) model in Phoenix64, Pharsight, Certara. Therapeutic Index (TI) was calculated either as ID50 for spleen weight reduction or ID50 for blood osteocalcin concentrations, divided by ID50 for ear weight reduction.
RNA was extracted from biopsies and qPCR was performed using TaqMan gene expression assays (Fkbp5-Mm00487406_m1, Tsc22d3 (Gilz)-Mm00726417_s1, Actb-Mm00607939_s1, Pgk1-Mm00435617_m1, Tbp-Mm00446971_m1, Ubc-Mm02525934_g1). Gene expression of Fkbp5 and Tsc22d3 (Gilz) was normalized to the geometric mean of the reference genes Actb, Pgk1, Tbp and Ubc.

[3] = test system: minipig skin; assay: Local tolerance study in minipigs (skin atrophy); assay type: in vivo; conditions: for Discoloration of application sites: 4 weeks topical; for Reduction in epidermal thickness: 4 weeks, vs untreated and vehicle controls
Protocol: 5 male Göttingen SPF minipigs (5–7 months old; body weight 12–15 kg) were obtained from Ellegaard Göttingen Minipigs A/S, Dalmose, Denmark.
Each animal was treated for 6 h daily over 28 days with 25 µL of the following topical formulations on an application area of 2.5 cm × 2.5 cm: Vehicle (transcutol:acetone (1:9) with 10% hydroxy-propyl-cellulose); Dermovate cream (CP 0.05%), CP 0.05% in vehicle; Betnovate cream (BMV 0.1%); BMV 0.1% in vehicle; LEO 134310 2% in vehicle. One test field on each animal remained untreated.
Formulations were spread uniformly over the indicated clipped area and covered with porous gauze dressing. At the end of each exposure period all application site as well as the untreated area were rinsed with a mild soap (Abena Mild cream soap, Abena A/S, Denmark) in water and dried with a paper towel.
Skin biopsies were taken from anaesthetized animals 24 h after the last treatment. Samples for histopathological examination were fixed in phosphate buffered neutral 4% formaldehyde and stained with H&E. Mean arithmetic epidermal thickness was determined by measuring epidermal area, excluding stratum corneum, and dividing this area with the length of the epidermis. All measurements were performed on H&E stained and scanned slides using the Visiopharm software.

[4] = test system: LPS-induced TNF-alpha release in PBMCs; assay: TNF-alpha inhibition assay, mouse PBMCs; assay type: cell-based; conditions: for EC50: geometric mean
Protocol: PMBCs were isolated from human buffy coats or animal whole blood (EDTA-treated). Buffy coats from anonymized healthy adult blood donors were obtained from the Blood Bank of the National University Hospital Copenhagen in accordance with national legislation. Whole blood from mice (obtained from Charles River) was sampled at the animal facility at LEO Pharma and whole blood from pigs was sourced from ScanTox. Test compounds and PBMCs were incubated with 1 µg/ml LPS (Sigma) overnight at 37 °C in HEPES and Glutamax-containing RPMI medium supplemented with either 0.5% human serum albumin (human PBMCs) or 10% fetal bovine serum (mouse and pig PBMCs) and penicillin/streptomycin. TNF-alpha was measured using AlphaLISA (Perkin Elmer).
as §1

[5] = CP 0.05%, BMV 0.1%, 6 h daily semi-occlusion

| SMILES | Emax [1] [%] | EC50 [1] [nM] | Ear biopsy weight ID50 (API concentration in formulation) [2] | Ear biopsy weight Imax [2] | Discoloration of application sites [3] | Reduction in epidermal thickness [3, 5] | Emax ([4]; PBMC) [%] | EC50 ([4]; PBMC) [nM] | Transrepression Emax [1] [%] | Less potent than BMV, reduction in ear biopsy weight [2] [fold] | Less potent than CP, reduction in ear biopsy weight [2] | Reduction in epidermal thickness ([3]; LEO 134310 2%, 6 h daily) | Inhibition of LPS-induced TNF-alpha release Emax [4] [%] | EC50 [4] [nM] |
| --- | --- | --- | --- | --- | --- | --- | --- | --- | --- | --- | --- | --- | --- | --- |
| CCC(=O)O[C@]1(C(=O)CCl)[C@@H](C)C[C@H]2[C@@H]3CCC4=CC(=O)C=C[C@]4(C)[C@@]3(F)[C@@H](O)C[C@@]21C [CP, Clobetasol Propionate] | 90 | 0.064 | 1.5 (69) µg/mL | 67 (14) % | notable discoloration was observed in most application sites | 30–40% | 95 | 0.15 |  |  |  |  |  |  |
| C[C@H](NC(=O)[C@H]1CCCO1)[C@H](Oc1ccc(C(=O)O[C@H]2CCCN(C(=O)[C@H]3COC(=O)C3)C2)cc1)c1ccc(C2CC2)cc1 [LEO 134310] |  | 1.2 | 500 (250) µg/mL | 64 (39) % |  |  |  |  | 100 | ~100 | approximately 300 fold | did not result in any significant reduction in epidermal thickness | 102 | 0.58 |
| CCCCC(=O)O[C@]1(C(=O)CO)[C@@H](C)C[C@H]2[C@@H]3CCC4=CC(=O)C=C[C@]4(C)[C@@]3(F)[C@@H](O)C[C@@]21C [BMV, Betamethasone Valerate] | 78 | 0.57 | 5.1 (73) µg/mL | 69 (17) % | notable discoloration was observed in most application sites | 30–40% | 95 | 0.22 |  |  |  |  |  |  |
